Legend:
Set-up in all cases: species or system Aves
[1] = Changes in free energy concentration
[2] = Inhibition of Avian AIR carboxylase in presence of 0.5 nM of the compound
[3] = Kobs versus inhibitory concentration

Structure (SMILES): Nc1c([N+](=O)[O-])ncn1[C@@H]1O[C@H](COP(=O)(O)O)[C@@H](O)[C@H]1O
- Ki [1]: 1.6 nM
- Ki [2]: 1.3 nM
- Ki [3]: 1.4 nM

— ChEMBL document CHEMBL1126890, “A tight binding inhibitor of 5-aminoimidazole ribonucleotide carboxylase” (J Med Chem, 1993)
